Experimental data taken from publication PMC12610274, “Identification of Marrubiin as a Cathepsin C Inhibitor for Treating Rheumatoid Arthritis” (Molecules, 2025).

What was measured:
intracellular CTSC = molecular target: T1, intracellular CTSC (Homo sapiens, UniProt P53634); test: CTSC cell-based assay using the U937 cell line; settings: read-out: Cell-Based Enz (IC50: nM)
T1 construct: endogenous in cells; host or cells: U937
Method: Cell-based CTSC enzymatic activity assays were performed in 96-well clear-bottom black microplates. […] The detection substrate, H-Gly-Arg-AFC, was diluted to 100 µM in serum-free medium and stored for later use. U937 cells in the logarithmic growth phase were harvested, washed with PBS, and counted. A single-cell suspension was prepared at a density of 1.0 × 10^6 cells/mL using serum-free medium. 30 µL of cell suspension was seeded into each well of the 96-well plate. To the test wells, 10 µL of the compound working solution was added, while 10 µL of serum-free medium was added to the control wells. The plate was pre-incubated in a cell culture incubator at 37 °C for 3 h. Subsequently, 10 µL of H-Gly-Arg-AFC was added to initiate the enzymatic reaction, and the plate was further incubated at 37 °C for 1 h. Fluorescence measurements were performed using a multimode microplate reader at excitation/emission wavelengths of 400/505 nm. Each group of tests was independently repeated at least 3 times, and IC50 values were calculated using SPSS 10.0.

PR3 = test: Stability (protein level) of NSPs in U937 cells, Western blot, PR3; format: cell-based, human; settings: U937, 10 μM
Method: (§1) The Western blot experiments in this study were performed as described below. Cells in the logarithmic growth phase were collected in appropriate numbers according to different experimental purposes. After being thoroughly washed with phosphate-buffered saline and centrifuged, the cell pellets were resuspended in phosphate-buffered saline to obtain single-cell suspensions. Cells were fully lysed using RIPA buffer (Beyotime, P0013B) supplemented with EDTA-free protease and phosphatase inhibitor (Abcam, ab201120). Total cellular protein solutions were obtained after centrifugation to remove cell debris. The isolated proteins were quantified using the BeyoBCA protein assay kit (Beyotime, P0399M) following the operational protocol. The quantified protein samples were thoroughly mixed with protein loading buffer, boiled on a dry bath for 5 min, and then cooled to room temperature for Western blot analysis. […] Finally, enhanced chemiluminescent horseradish peroxidase substrate (Tanon Science & Technology Co., Ltd., Shanghai, China, 180-506) was used to visualize protein bands on a ChemiDoc XRS system (Bio-Rad Laboratories, Inc., Hercules, CA, USA), and the protein bands were quantified using Image Lab analysis software (Version 6.1) (Bio-Rad). […]

NE = test: AIA model, serum NE activity; format: in vivo, Sprague-Dawley rats; settings: rat AIA, high dose 60 mg/kg gavage, 15 days
Method: Thirty 4-week-old male Sprague-Dawley rats (weighing 120–130 g) were randomly divided into 6 groups (5 rats per group) after 1 week of adaptive feeding, namely the normal group, model group, low-dose experimental group (15 mg/kg), medium-dose experimental group (30 mg/kg), high-dose experimental group (60 mg/kg), and positive control group (30 mg/kg). Starting from Day 0 of the experiment, rats in the administration groups and model group were injected intradermally with 0.1 mL of CFA into the left hind paw to induce AIA, while rats in the normal group were injected intradermally with an equal volume (0.1 mL) of normal saline as a control. After 13 consecutive days of feeding, rats treated with CFA successfully developed typical AIA symptoms. […] During the experiment, the body weight, mental state, activity ability, hair color changes, and paw appearance changes of the rats were observed and recorded daily. In addition, on Day 0 of the experiment (baseline period), the basic paw volume of all rats was accurately measured using a plethysmometer, which served as a reference standard for subsequent evaluation of inflammation severity. From Day 13 to Day 28 of the experiment, the paw volume of the rats was measured repeatedly every 3 days. The degree of paw swelling was quantified by calculating the change in paw volume relative to the baseline. […] The cytokine levels in serum were measured. […]

Cat G = test: Stability (protein level) of NSPs in U937 cells, Western blot, Cat G; format: cell-based, human; settings: U937, 10 μM
Method: as §1

[1] = Safety evaluation in vivo (body weight, toxic reactions, H&E staining); settings: mice, high-dose group (30 mg/kg)
Method: A total of 25 C57BL/6 mice (6–8 weeks old, weighing approximately 20 g, with equal numbers of males and females) were randomly divided into five groups. Mice in the compound-treated groups were orally administered the compound once daily at doses of 0.3, 3, and 30 mg/kg for 7 consecutive days. […] Mice in the normal group were given an equal volume of normal saline at the same time points. The body weight, death rate, and behavior were observed and recorded daily for one week. After 7 days, bone marrow and blood samples were collected from the mice and lysed using 8% Triton X-100 buffer. The lysates were stored at −20 °C until testing. The activity assays for CTSC and NSPs were performed as described above. The mice were anesthetized and the tissues were taken for H&E staining.

Dipeptidyl Peptidase 8 = Dipeptidyl Peptidase 8 (Homo sapiens, UniProt Q6V1X1); test: Recombinant dipeptidyl peptidases isolated enzyme assay, DPP8; format: biochemical; settings: read-out: Dipeptidyl Peptidase 8 Enz (IC50: μM)
Source text: Table 3 Inhibitory effects of marrubiin on dipeptidyl peptidase. | column: Dipeptidyl Peptidase 8 Enz (IC50: μM)

Sequence of Dipeptidyl Peptidase 8 (Q6V1X1 whole entry, species assumed): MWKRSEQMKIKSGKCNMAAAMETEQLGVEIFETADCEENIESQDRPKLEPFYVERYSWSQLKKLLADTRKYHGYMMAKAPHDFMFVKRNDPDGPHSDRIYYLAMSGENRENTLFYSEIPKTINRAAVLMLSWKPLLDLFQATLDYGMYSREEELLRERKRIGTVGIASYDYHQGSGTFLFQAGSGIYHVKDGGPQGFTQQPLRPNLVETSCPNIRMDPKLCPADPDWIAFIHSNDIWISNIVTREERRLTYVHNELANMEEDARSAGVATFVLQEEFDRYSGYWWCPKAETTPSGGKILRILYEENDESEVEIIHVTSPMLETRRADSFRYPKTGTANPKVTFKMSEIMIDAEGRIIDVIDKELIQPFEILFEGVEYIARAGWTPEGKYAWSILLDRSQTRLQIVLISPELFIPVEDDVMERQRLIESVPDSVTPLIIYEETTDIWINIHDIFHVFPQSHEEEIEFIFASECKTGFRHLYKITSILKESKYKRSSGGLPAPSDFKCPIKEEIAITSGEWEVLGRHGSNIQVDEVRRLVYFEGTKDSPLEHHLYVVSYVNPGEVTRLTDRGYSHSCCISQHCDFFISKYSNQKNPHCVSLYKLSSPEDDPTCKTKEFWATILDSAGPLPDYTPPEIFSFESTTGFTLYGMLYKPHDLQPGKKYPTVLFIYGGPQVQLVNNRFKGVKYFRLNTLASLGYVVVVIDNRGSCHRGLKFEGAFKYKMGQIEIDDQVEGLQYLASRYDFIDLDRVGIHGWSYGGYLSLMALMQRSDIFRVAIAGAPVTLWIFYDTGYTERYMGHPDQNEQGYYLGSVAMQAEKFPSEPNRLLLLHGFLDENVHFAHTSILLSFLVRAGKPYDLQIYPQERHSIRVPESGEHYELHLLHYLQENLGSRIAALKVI
T1 sequence (P53634 25-463): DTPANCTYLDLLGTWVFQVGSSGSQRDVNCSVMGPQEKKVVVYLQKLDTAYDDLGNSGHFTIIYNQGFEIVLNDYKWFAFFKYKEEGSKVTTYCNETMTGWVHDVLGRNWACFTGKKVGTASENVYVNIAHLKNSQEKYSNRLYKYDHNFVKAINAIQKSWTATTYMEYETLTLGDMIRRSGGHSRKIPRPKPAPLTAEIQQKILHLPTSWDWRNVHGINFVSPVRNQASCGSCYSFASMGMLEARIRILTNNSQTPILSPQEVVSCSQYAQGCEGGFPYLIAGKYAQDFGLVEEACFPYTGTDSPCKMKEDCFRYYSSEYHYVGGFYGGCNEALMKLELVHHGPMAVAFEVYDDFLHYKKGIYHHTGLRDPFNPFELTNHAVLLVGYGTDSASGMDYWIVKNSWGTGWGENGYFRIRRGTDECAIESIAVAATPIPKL

C[C@@H]1C[C@H]2OC(=O)[C@@]3(C)CCC[C@@](C)([C@@H]23)[C@@]1(O)CCc1ccoc1 [Marrubiin, marrubiin]
IC50 (intracellular CTSC): 51.6 ± 3.2 nM | PR3 protein level, % of original level (PR3; 96 h): 28.2% | PR3 protein level, % of original level (PR3; 5 days): 15.8% | serum NE activity, % of control group (NE): ~47% | Cat G protein level, % of original level (Cat G; 96 h): 30.2% | Cat G protein level, % of original level (Cat G; 5 days): 12.3% | toxic reactions and body weight ([1]; 7-day continuous administration): no toxic reactions or significant weight loss were observed | H&E staining of tissues and organs (heart, liver, spleen, lung, kidney) ([1]; 7 days): No pathological changes | IC50 (Dipeptidyl Peptidase 8): > 10 µM
